Test results as given in the supplement of paper PMC10307832.

Columns and labels:
Assay in all cases: relative viability (nuclei count vs DMSO), 5 days (fraction); higher = more cells survive
[1] = compound: C[C@@H](N)c1ccc(C(=O)Nc2ccnc3[nH]ccc23)cc1
Method in brief: (§1)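 Only plates meeting two conditions passed: control CV below 25% and at least one doubling. Lung cancer cell lines, kept overnight at 37 °C in 1536-well plates, were pinned with five library-drug doses (not always all listed) √10 apart on vehicle-anchored plates and grown 5 days without medium change. A one-step fix, permeabilisation and Hoechst stain preceded 4× imaging and MetaXpress nuclear counting. Viability equals treated-well nuclei divided by vehicle-well nuclei, as the median over plates.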

Tanzisertib = compound: O[C@H]1CC[C@H](Nc2ncc3nc(Nc4c(F)cc(F)cc4F)n([C@H]4CCOC4)c3n2)CC1 [Tanzisertib]
Method in brief: as §1

[2] = compound: C1CNCCC1C2=CC(=NN2)C3=CC=NC=C3
Method in brief: as §1

Row | Cell Line | relative viability ([1]; 0.04 µM) | relative viability ([1]; 0.1265 µM) | relative viability ([1]; 0.4 µM) | relative viability ([1]; 1.265 µM) | relative viability ([1]; 4 µM) | relative viability (Tanzisertib; 0.08 µM) | relative viability (Tanzisertib; 0.253 µM) | relative viability (Tanzisertib; 0.8 µM) | relative viability (Tanzisertib; 2.53 µM) | relative viability (Tanzisertib; 8 µM) | relative viability ([2]; 0.08 µM) | relative viability ([2]; 0.8 µM) | relative viability ([2]; 2.53 µM) | relative viability ([2]; 8 µM)
1 | NCI-H1648 | 1.44 | 1.21 | 1.59 | 1.82 | 1.37 | 0.97 | 1.14 | 0.926 | 0.97 | 0.667 | 0.979 | 0.826 | 0.754 | 0.97
2 | NCI-H1650 | 0.933 | 1.05 | 0.951 | 0.977 | 0.867 | 0.953 | 1 | 0.93 | 0.864 | 0.771 | 0.752 | 0.995 | 0.987 | 0.955
3 | NCI-H1651 | 1.02 | 1 | 1.07 | 1.13 | 1.09 | 1.03 | 1.01 | 0.933 | 0.886 | 0.92 | 0.956 | 1.01 | 0.989 | 0.967
4 | NCI-H1666 | 1.13 | 1.06 | 1.23 | 1.23 | 1.26 | 0.966 | 1.04 | 1.03 | 1.07 | 1.09 | 0.927 | 1.04 | 1.11 | 0.981
5 | NCI-H1703 | 0.794 | 0.863 | 0.757 | – | 0.906 | 1.14 | 0.899 | 0.843 | 0.717 | 0.719 | 0.874 | 1.2 | 1.01 | 0.94
6 | NCI-H1734 | 0.833 | 1.08 | 0.929 | 0.568 | 0.819 | 1.25 | 1.01 | 0.945 | 1.06 | 0.927 | 0.945 | 1.01 | 1.05 | 0.968
7 | NCI-H1755 | 0.911 | 0.987 | 0.945 | 0.937 | 0.793 | 1.02 | 0.958 | 1 | 0.97 | 0.961 | 1.01 | 0.915 | 1.03 | 0.948
8 | NCI-H1792 | 0.948 | 0.735 | 0.945 | 0.649 | 0.827 | 1.03 | 1.07 | 0.939 | 0.899 | 0.606 | 0.945 | 0.903 | 0.976 | 0.95
9 | NCI-H1793 | 0.973 | 0.952 | 1.08 | – | 1.11 | 1.07 | 0.857 | 0.998 | 0.758 | 0.522 | 0.835 | 0.702 | 0.923 | 0.878
10 | NCI-H1915 | 0.856 | 1.02 | 0.962 | – | 0.884 | 1.12 | 1.04 | 0.957 | 1.01 | 0.875 | 0.968 | 1.07 | 0.999 | 0.977
11 | NCI-H1944 | 1.01 | 0.987 | 1.02 | 0.822 | 0.793 | 1.14 | 0.966 | 0.971 | 1 | 0.86 | 0.903 | 0.964 | 0.987 | 1.01
12 | NCI-H1975 | 0.838 | 0.875 | 0.942 | 0.72 | 0.602 | 0.935 | 1.02 | 0.934 | 0.955 | 0.874 | 0.969 | 0.873 | 0.998 | 0.964
13 | NCI-H1993 | 0.989 | 1.1 | – | 0.9 | 0.996 | 1.06 | 0.952 | 0.969 | 0.822 | 0.786 | 0.889 | 0.911 | 0.978 | 1.02
14 | NCI-H2009 | 0.978 | 1.02 | 0.958 | 0.922 | 0.813 | 1.08 | 1.04 | 0.999 | 1.12 | 1.06 | 1.03 | 1.07 | 1.07 | 1
15 | NCI-H2023 | 1.04 | 1.06 | 1.12 | 0.942 | 1.02 | 1.1 | 0.958 | 1 | 0.907 | 0.899 | 0.821 | 1.1 | 1.08 | 1
16 | NCI-H2085 | 0.944 | 0.96 | 0.958 | 0.935 | 0.861 | 0.987 | 0.991 | 1.02 | 1.03 | 0.976 | 1.09 | – | 1.01 | 0.983

Row | Cell Line | relative viability ([1]; 0.04 µM) | relative viability ([1]; 0.1265 µM) | relative viability ([1]; 0.4 µM) | relative viability ([1]; 1.265 µM) | relative viability ([1]; 4 µM) | relative viability (Tanzisertib; 0.08 µM) | relative viability (Tanzisertib; 0.253 µM) | relative viability (Tanzisertib; 0.8 µM) | relative viability (Tanzisertib; 2.53 µM) | relative viability (Tanzisertib; 8 µM) | relative viability ([2]; 0.08 µM) | relative viability ([2]; 0.8 µM) | relative viability ([2]; 2.53 µM) | relative viability ([2]; 8 µM)
17 | NCI-H2087 | 0.988 | 1.01 | 0.916 | 0.92 | 0.711 | 1.19 | 0.969 | 1.25 | 1.09 | 0.916 | 1 | 1.12 | 0.996 | 0.96
18 | NCI-H2126 | 1.06 | 0.999 | 0.994 | 0.889 | 1.1 | 1.01 | 1.08 | 1.03 | 0.983 | 0.893 | 0.944 | 0.969 | 1.06 | 1.02
19 | NCI-H2170 | 1.1 | 0.992 | 1 | 0.926 | 0.936 | 1.11 | 0.96 | 0.992 | 0.977 | 0.887 | 0.834 | 0.978 | 0.939 | 0.984
20 | NCI-H2228 | 1.17 | 1.05 | 1.13 | 1.03 | 0.814 | 1.19 | 0.853 | 1.02 | 1.06 | 0.864 | 0.921 | 1.17 | 0.983 | 1.07
21 | NCI-H2342 | 1.03 | 1.06 | 1.04 | 1.21 | 0.927 | 1.09 | 1.09 | 0.945 | 0.845 | 0.959 | 0.919 | 0.965 | 1.03 | 1.16
22 | NCI-H2347 | 0.971 | 0.995 | 1.14 | 0.816 | 0.956 | 1.11 | 0.956 | 1.06 | 1.08 | 0.965 | 1.01 | 0.869 | 1.08 | 1.12
23 | NCI-H2405 | 0.653 | 1.16 | 0.998 | 0.569 | 0.376 | 1.12 | 1.02 | 1.1 | 1.04 | 0.695 | 1.04 | 0.901 | 1.02 | 0.961
24 | NCI-H3122 | 0.997 | 1.04 | 0.975 | 1 | 0.894 | 1.02 | 0.964 | 1.03 | 1 | 0.936 | 0.978 | 1.03 | 1.02 | 0.988
25 | PC-3 [JPC-3] | 0.986 | 1.04 | 0.997 | 0.949 | 0.884 | 1.02 | 1.06 | 1.11 | 0.983 | 0.871 | 1.02 | 1 | 1.08 | 1.03
26 | PC-14 | 0.906 | 0.979 | 0.995 | 0.707 | 0.779 | 1.06 | 1.07 | 0.996 | 0.984 | 0.546 | 1.01 | 1.06 | 1.13 | 0.987
27 | RERF-LC-KJ | 1.02 | 1.01 | 1.16 | 1.08 | 1.02 | 1.13 | 1 | 1.01 | 0.972 | 0.87 | 0.868 | 1.01 | 1.03 | 0.943
28 | SK-LU-1 | 0.986 | 1.04 | 1 | 0.886 | 0.833 | 1.19 | 1.05 | 1.02 | 1.1 | 1.01 | 1.04 | 0.972 | 1.2 | 1.02
29 | SK-MES-1 | 0.987 | 0.969 | 1 | 0.878 | 0.82 | 1.08 | 0.984 | 0.975 | 0.992 | 0.808 | 1.03 | 0.925 | 1.05 | 0.999
30 | SW 900 | 0.92 | 0.965 | 0.887 | 1.24 | 0.986 | 0.811 | 0.87 | 0.936 | 1.18 | 0.691 | 0.843 | 0.67 | 0.88 | 0.995
31 | SW 1573 | 1.13 | 1.04 | 1.08 | 0.966 | 0.803 | 1.14 | 0.938 | 1 | 1.01 | 0.909 | 0.709 | 1.06 | 1.15 | 1.09
